We go through one molecule from paper PMC3139011 (Archives of biochemistry and biophysics, 2011).

What is called Kd is the concentration at which binding is half-saturated.

One assay has as its target T1, hDUOX1_1–593 (Homo sapiens, UniProt Q9NRD9).
T1 sequence (Q9NRD9 1-593): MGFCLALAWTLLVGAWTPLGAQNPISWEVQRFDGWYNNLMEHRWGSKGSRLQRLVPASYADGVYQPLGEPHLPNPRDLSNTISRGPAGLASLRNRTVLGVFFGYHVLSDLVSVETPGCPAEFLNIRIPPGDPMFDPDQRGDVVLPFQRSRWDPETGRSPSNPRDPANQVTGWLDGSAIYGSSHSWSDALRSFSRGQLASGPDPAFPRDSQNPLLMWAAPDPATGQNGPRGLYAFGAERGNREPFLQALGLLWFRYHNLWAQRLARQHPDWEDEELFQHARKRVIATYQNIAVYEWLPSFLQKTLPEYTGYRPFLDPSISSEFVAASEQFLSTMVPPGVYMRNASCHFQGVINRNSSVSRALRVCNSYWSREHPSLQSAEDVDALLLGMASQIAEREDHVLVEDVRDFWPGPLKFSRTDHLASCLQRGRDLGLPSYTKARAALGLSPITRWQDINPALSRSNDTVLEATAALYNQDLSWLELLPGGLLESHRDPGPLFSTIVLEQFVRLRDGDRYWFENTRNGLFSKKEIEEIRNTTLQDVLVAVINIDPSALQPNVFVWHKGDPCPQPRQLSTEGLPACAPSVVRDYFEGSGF
In words: heme titration, difference absorbance spectroscopy. Format: binding.

For the next assay, the target named is T2, hDUOX2_1–599 (Homo sapiens, UniProt Q9NRD8).
T2 sequence (Q9NRD8 1-599): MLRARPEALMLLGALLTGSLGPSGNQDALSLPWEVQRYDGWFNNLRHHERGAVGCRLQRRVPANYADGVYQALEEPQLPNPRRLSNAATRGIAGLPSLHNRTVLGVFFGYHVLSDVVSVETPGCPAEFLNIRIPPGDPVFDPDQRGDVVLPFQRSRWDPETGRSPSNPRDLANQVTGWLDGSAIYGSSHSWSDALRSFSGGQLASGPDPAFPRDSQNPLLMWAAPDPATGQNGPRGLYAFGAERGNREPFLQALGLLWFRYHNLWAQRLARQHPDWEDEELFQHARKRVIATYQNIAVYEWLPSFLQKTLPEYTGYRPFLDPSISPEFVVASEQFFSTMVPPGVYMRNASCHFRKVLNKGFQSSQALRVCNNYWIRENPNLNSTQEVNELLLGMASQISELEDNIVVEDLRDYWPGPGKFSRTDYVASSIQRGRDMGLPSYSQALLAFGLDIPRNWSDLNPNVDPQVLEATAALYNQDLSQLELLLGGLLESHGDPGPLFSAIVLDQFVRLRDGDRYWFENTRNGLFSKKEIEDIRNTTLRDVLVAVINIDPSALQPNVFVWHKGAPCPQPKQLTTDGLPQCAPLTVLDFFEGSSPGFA
In words: heme titration, difference absorbance spectroscopy. Format: binding.

As for `C=CC1=C(C)C2=Cc3c(C=C)c(C)c4[n]3[Fe]([Cl])[n]3c(c(C)c(CCC(=O)O)c3=CC3=NC(=C4)C(C)=C3CCC(=O)O)=CC1=N2` [heme], the values for the Kd on hDUOX1_1–593 and on hDUOX2_1–599 were 2.7 ± 0.1 µM and 2.4 ± 0.4 µM, respectively.
